How the values were obtained:
[1] = target: T1, CDK1 (p34^cdc2, cyclin B) (Homo sapiens, UniProt P06493); experiment: CDK inhibition assay, p34^cdc2 kinase, histone H1 phosphorylation; type: biochemical; settings: 15 μM ATP, histone H1, 30° C.
T1 construct: made in house; host or cells: Sf9 insect cells (baculovirus co-infection)
Method: The controls contain suitable dilutions of DMSO.
2-glycerolphosphate, 1 mM NaF, 1 mM DTT

[2] = target: CDK2 (p33^cdk2, cyclin E) (Homo sapiens, UniProt P24941); experiment: CDK inhibition assay, p33^cdk2 kinase, histone H1 phosphorylation;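 further: Baculovirus-expressed kinase/cyclin complex from Sf9 cell extract, 10 min at 30 °C, phosphoproteins separated by SDS gel and quantified by image analysis, activity relative to DMSO control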
Method: Cyclin-dependent kinases (p34^cdc2, p33^cdk2) and cyclins (cyclin B, E) are produced in Sf9 insect cells coinfected with appropriate baculoviral constructs. The cells are harvested 68-72 hrs post infection in lysis buffer for 30 min on ice and the soluble fraction is recovered by centrifugation at 14.000 g for 10 min. The protein extract is stored at −80° C.
Lysis buffer: 50mM Tris pH 7.4, 150mM NaCl, 5 mM EDTA, 20 mM NaF, 1% Tween, 1 mM DTT, 0.1 mM PMSF, leupeptine, aprotonine.
To carry out experiments on kinetics under linear conditions, the final point test system for kinase activity measurement is used. The kinase is added to reaction mixture in such a way as to obtain linear activity with respect to the concentration of enzyme and with respect to time.
Kinase activity is determined at 30° C. in the kinase buffer.
Tested compounds are usually dissolved to 100 mM solutions in DMSO, final concentration of DMSO in reaction mixture never exceeds 1%. The controls contain suitable dilutions of DMSO.
After 10 min, addition 3×SDS sample buffer stops the incubations. Phosphorylated proteins are separated electrophoretically using 10% SDS polyacrylamide gel. The measurement of kinase activity is done using digital image analysis.
The kinase activity is expressed as a percentage of maximum activity, the apparent inhibition constants are determined by graphic analysis.
Kinase buffer: 50 mM Hepes pH 7.4, 10 mM MgCl2, 5 mM EGTA, 10 mM

T1 sequence (P06493 whole entry, species assumed): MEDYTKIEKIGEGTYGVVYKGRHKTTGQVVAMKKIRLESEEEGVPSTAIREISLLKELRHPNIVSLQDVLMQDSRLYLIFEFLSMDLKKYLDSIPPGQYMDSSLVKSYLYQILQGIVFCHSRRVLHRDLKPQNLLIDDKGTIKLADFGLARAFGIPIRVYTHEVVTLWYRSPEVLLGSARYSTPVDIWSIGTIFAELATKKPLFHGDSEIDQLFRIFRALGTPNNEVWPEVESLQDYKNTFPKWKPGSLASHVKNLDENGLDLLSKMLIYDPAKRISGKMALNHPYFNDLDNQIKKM
T1 sequence (P14635 whole entry partner, species assumed): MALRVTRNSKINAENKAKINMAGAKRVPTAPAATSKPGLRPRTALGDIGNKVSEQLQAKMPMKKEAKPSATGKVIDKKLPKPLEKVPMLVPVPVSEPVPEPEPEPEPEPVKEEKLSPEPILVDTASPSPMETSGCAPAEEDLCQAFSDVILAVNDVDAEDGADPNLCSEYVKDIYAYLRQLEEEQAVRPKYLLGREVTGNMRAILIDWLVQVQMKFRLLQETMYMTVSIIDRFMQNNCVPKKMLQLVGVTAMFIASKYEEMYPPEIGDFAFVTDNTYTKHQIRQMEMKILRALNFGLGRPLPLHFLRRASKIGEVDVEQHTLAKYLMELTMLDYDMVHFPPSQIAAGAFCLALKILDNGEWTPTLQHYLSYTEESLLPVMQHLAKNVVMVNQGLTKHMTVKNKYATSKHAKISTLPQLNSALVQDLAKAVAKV

| Compound | IC50 [1] | IC50 [2] |
| --- | --- | --- |
| CCc1n[nH]c2c(NCc3ccccc3Cl)ncnc12 [2-chlorobenzylamino / ethyl] | 12 µM | 12 µM |
| CCc1n[nH]c2c(NCc3ccccc3C)ncnc12 [2-methylbenzylamino / ethyl] | 15 µM | 14 µM |
| Cc1ccccc1CNc1ncnc2c(C)n[nH]c12 [2-methylbenzylamino / methyl] | 18 µM | 17 µM |
| CCc1n[nH]c2c(Nc3ccc(Cl)c(N)c3)ncnc12 [3-amino-4-chloroanilino / ethyl] | 23 µM | 22 µM |
| Cc1n[nH]c2c(Nc3ccc(Cl)c(N)c3)ncnc12 [3-amino-4-chloroanilino / methyl] | 27 µM | 28 µM |
| CCc1n[nH]c2c(Nc3ccc(Cl)c(C(=O)O)c3)ncnc12 [3-carboxy-4-chloroanilino / ethyl] | 38 µM | 40 µM |
| Cc1n[nH]c2c(Nc3ccc(Cl)c(C(=O)O)c3)ncnc12 [3-carboxy-4-chloroanilino / methyl] | 24 µM | 29 µM |
| CCc1n[nH]c2c(Nc3ccc(O)c(C(=O)O)c3)ncnc12 [3-carboxy-4-hydroxyanilino / ethyl] | 24 µM | 22 µM |
| Cc1n[nH]c2c(Nc3ccc(O)c(C(=O)O)c3)ncnc12 [3-carboxy-4-hydroxyanilino / methyl] | 34 µM | 40 µM |
| CCc1n[nH]c2c(Nc3ccc(N)c(Cl)c3)ncnc12 [3-chloro-4-aminoanilino / ethyl] | 35 µM | 28 µM |
| CCc1n[nH]c2c(Nc3ccc(C(=O)O)c(Cl)c3)ncnc12 [3-chloro-4-carboxyanilino / ethyl] | 36 µM | 32 µM |
| Cc1n[nH]c2c(Nc3ccc(C(=O)O)c(Cl)c3)ncnc12 [3-chloro-4-carboxyanilino / methyl] | 25 µM | 28 µM |
| CCc1n[nH]c2c(Nc3cc(N)cc(Cl)c3)ncnc12 [3-chloro-5-aminoanilino / ethyl] | 20 µM | 15.5 µM |
| Cc1n[nH]c2c(Nc3cc(N)cc(Cl)c3)ncnc12 [3-chloro-5-aminoanilino / methyl] | 19 µM | 24 µM |
| CCc1n[nH]c2c(NCc3cccc(Cl)c3)ncnc12 [3-chlorobenzylamino / ethyl] | 9.7 µM | 10.2 µM |
| Cc1n[nH]c2c(NCc3cccc(Cl)c3)ncnc12 [3-chlorobenzylamino / methyl] | 8.8 µM | 9.4 µM |
| CCc1n[nH]c2c(NCc3cccc(C)c3)ncnc12 [3-methylbenzylamino / ethyl] | 18 µM | 17 µM |
| Cc1cccc(CNc2ncnc3c(C)n[nH]c23)c1 [3-methylbenzylamino / methyl] | 28 µM | 31 µM |
| CCc1n[nH]c2c(Nc3ccc(Br)cc3)ncnc12 [4-bromoanilino / ethyl] | 22 µM | 18 µM |
| Cc1n[nH]c2c(Nc3ccc(Br)cc3)ncnc12 [4-bromoanilino / methyl] | 16 µM | 18 µM |
| CCc1n[nH]c2c(Nc3ccc(Cl)cc3)ncnc12 [4-chloroanilino / ethyl] | 14 µM | 16 µM |
| Cc1n[nH]c2c(Nc3ccc(Cl)cc3)ncnc12 [4-chloroanilino / methyl] | 26 µM | 28 µM |
| CCc1n[nH]c2c(NCc3ccc(Cl)cc3)ncnc12 [4-chlorobenzylamino / ethyl] | 26 µM | 19 µM |
| Cc1n[nH]c2c(NCc3ccc(Cl)cc3)ncnc12 [4-chlorobenzylamino / methyl] | 20 µM | 18 µM |
| C=CCNc1ncnc2c(CC)n[nH]c12 [allylamino / ethyl] | 25 µM | 29 µM |
| C=CCNc1ncnc2c(C)n[nH]c12 [allylamino / methyl] | 42 µM | 48 µM |
| CCc1n[nH]c2c(Nc3ccccc3)ncnc12 [anilino / ethyl] | 14 µM | 20 µM |
| Cc1n[nH]c2c(Nc3ccccc3)ncnc12 [anilino / methyl] | 22 µM | 21 µM |

Source: patent US20070167466A1, “"Pyrazolo [4,3-d]pyrimidines, processes for their preparation and methods of use"” (priority 2003, published 2007)
